Source: US9790228B2, “Heterocyclic kinase inhibitors” (Intellikine LLC, priority 2008, dated 2017)

Key:
Balb/c splenic B cells = test: B cell activation and proliferation assay (Alamar Blue); type: cell-based, mouse; settings: Mus musculus, B-cell
Protocol: The ability of one or more subject compounds to inhibit B cell activation and proliferation is determined according to standard procedures known in the art. For example, an in vitro cellular proliferation assay is established that measures the metabolic activity of live cells. The assay is performed in a 96 well microtiter plate using Alamar Blue reduction. Balb/c splenic B cells are purified over a Ficoll-Paque™ PLUS gradient followed by magnetic cell separation using a MACS B cell Isolation Kit (Miletenyi). Cells are plated in 90 ul at 50,000 cells/well in B Cell Media (RPMI+10% FBS+Penn/Strep+50 uM bME+5 mM HEPES). A compound disclosed herein is diluted in B Cell Media and added in a 10 ul volume. Plates are incubated for 30 min at 37 C and 5% CO2 (0.2% DMSO final concentration). A 50 ul B cell stimulation cocktail is then added containing either 10 ug/ml LPS or 5 ug/ml F(ab′)2 Donkey anti-mouse IgM plus 2 ng/ml recombinant mouse IL4 in B Cell Media. Plates are incubated for 72 hours at 37° C. and 5% CO2. A volume of 15 uL of Alamar Blue reagent is added to each well and plates are incubated for 5 hours at 37 C and 5% CO2. Alamar Blue fluoresce is read at 560Ex/590Em, and IC50 or EC50 values are calculated using GraphPad Prism 5.

p110δ/p85α = p110δ/p85α (Homo sapiens (Human), UniProt O00329); test: PI3K δ inhibition assay (TLC lipid kinase or HTRF); type: biochemical
Protocol: (§1) Class I PI3-Ks can be either purchased (p110α/p85α, p110β/p85α, p110δ/p85α from Upstate, and p110γ from Sigma) or expressed as previously described (Knight et al., 2004). IC50 values are measured using either a standard TLC assay for lipid kinase activity (described below) or a high-throughput membrane capture assay. Kinase reactions are performed by preparing a reaction mixture containing kinase, inhibitor (2% DMSO final concentration), buffer (25 mM HEPES, pH 7.4, 10 mM MgCl2), and freshly sonicated phosphatidylinositol (100 μg/ml). Reactions are initiated by the addition of ATP containing 10 μCi of γ-32P-ATP to a final concentration 10 or 100 μM and allowed to proceed for 5 minutes at room temperature. For TLC analysis, reactions are then terminated by the addition of […] 1N HCl followed by 160 μl CHCl3:MeOH (1:1). The biphasic mixture is vortexed, briefly centrifuged, and the organic phase is transferred to a new tube using a gel loading pipette tip precoated with CHCl3. This extract is spotted on TLC plates and developed for 3-4 hours in a 65:35 solution of n-propanol:1M acetic acid. The TLC plates are then dried, exposed to a phosphorimager screen (Storm, Amersham), and quantitated. For each compound, kinase activity is measured at 10-12 inhibitor concentrations representing two-fold dilutions from the highest concentration tested (typically, 200 μM).
(§2) Other commercial kits or systems for assaying PI3-K activities are available. The commercially available kits or systems can be used to screen for inhibitors and/or agonists of PI3-Ks including but not limited to PI 3-Kinase α, β, δ, and γ. Anr exemplary system is PI3-Kinase (human) HTRF™ Assay from Upstate. […] Briefly, the assay is a time resolved FRET assay that indirectly measures PIP3 product formed by the activity of a PI3-K. The kinase reaction is performed in a microtitre plate (e.g., a 384 well microtitre plate). The total reaction volume is approximately 20 ul per well. In the first step, each well receives 2 ul of test compound in 20% dimethylsulphoxide resulting in a 2% DMSO final concentration. Next, approximately 14.5 ul of a kinase/PIP2 mixture (diluted in 1× reaction buffer) is added per well for a final concentration of 0.25-0.3 ug/ml kinase and 10 uM PIP2. The plate is sealed and incubated for 15 minutes at room temperature. To start the reaction, 3.5 ul of ATP (diluted in 1× reaction buffer) is added per well for a final concentration of 10 uM ATP. The plate is sealed and incubated for 1 hour at room temperature. The reaction is stopped by adding 5 ul of Stop Solution per well and then 5 ul of Detection Mix is added per well. The plate is sealed, incubated for 1 hour at room temperature, and then read on an appropriate plate reader. Data is analyzed and IC50s are generated using GraphPad Prism 5.

p110γ = p110γ (Homo sapiens (Human), UniProt P48736); test: PI3K γ inhibition assay (TLC lipid kinase or HTRF); type: biochemical
Protocol: as §1, §2

p110α/p85α = p110α/p85α (Homo sapiens (Human), UniProt P42336); test: PI3K α inhibition assay (TLC lipid kinase or HTRF); type: biochemical
Protocol: as §1, §2

p110β/p85α = p110β/p85α (Homo sapiens, UniProt P42338); test: PI3K β inhibition assay (TLC lipid kinase or HTRF); type: biochemical; settings: read-out: PI3K β IC50
Protocol: as §1, §2

p110β/p85α, sequence (P42338 whole entry, looked up): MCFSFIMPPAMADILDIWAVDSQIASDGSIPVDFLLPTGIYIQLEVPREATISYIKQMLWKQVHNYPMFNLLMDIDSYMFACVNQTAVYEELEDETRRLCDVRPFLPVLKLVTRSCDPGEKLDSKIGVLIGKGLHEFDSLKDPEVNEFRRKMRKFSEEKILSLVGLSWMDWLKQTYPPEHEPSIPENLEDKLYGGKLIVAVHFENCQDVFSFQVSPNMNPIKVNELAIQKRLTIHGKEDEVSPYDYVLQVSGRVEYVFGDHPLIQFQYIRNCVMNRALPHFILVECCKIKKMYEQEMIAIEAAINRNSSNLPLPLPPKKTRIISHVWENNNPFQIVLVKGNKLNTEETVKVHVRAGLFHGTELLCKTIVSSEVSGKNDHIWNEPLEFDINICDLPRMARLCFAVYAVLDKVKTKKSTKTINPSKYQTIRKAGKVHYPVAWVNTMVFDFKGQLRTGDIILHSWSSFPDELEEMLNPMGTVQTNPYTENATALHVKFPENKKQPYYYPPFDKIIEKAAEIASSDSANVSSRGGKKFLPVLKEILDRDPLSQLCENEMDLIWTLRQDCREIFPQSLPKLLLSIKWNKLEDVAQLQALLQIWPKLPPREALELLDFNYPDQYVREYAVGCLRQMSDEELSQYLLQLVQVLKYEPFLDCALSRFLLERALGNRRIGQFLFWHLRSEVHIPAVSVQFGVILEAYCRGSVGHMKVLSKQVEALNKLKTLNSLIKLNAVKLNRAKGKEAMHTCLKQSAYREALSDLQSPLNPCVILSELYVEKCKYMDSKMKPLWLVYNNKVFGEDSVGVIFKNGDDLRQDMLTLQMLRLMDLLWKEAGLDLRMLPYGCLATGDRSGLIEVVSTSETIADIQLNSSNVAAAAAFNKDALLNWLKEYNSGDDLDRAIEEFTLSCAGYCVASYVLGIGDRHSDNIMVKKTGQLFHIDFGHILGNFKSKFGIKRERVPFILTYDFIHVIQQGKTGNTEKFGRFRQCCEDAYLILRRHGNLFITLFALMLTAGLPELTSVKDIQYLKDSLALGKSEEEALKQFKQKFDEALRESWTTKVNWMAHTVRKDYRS
p110α/p85α, sequence (P42336 whole entry): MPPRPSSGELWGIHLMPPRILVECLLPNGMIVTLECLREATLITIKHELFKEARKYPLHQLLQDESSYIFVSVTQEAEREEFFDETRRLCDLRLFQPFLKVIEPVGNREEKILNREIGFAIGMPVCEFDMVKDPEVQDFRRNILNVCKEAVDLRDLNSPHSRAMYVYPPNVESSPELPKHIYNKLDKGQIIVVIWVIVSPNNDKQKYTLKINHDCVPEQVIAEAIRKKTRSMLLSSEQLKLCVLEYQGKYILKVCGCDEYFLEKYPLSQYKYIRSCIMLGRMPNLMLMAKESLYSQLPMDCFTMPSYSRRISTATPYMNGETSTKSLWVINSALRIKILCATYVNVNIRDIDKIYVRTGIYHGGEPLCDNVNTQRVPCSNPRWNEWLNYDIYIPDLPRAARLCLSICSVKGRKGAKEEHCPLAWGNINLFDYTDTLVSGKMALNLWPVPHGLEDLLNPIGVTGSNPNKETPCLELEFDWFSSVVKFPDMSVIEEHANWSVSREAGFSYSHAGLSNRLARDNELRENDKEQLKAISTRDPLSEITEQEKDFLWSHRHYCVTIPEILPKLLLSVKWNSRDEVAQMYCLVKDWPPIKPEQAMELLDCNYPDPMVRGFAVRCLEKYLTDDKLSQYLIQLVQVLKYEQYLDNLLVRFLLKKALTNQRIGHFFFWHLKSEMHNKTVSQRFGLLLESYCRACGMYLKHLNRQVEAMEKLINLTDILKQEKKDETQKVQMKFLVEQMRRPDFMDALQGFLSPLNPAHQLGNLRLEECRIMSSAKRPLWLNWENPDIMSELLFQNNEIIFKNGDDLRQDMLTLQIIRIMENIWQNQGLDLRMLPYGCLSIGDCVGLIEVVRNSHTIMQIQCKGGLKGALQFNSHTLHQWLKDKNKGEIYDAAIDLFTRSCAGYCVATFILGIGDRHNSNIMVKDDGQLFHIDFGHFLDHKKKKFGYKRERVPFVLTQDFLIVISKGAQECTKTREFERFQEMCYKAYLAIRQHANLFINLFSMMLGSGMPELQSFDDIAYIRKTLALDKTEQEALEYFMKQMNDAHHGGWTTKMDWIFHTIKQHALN
p110α/p85α, sequence (P27986 whole entry partner): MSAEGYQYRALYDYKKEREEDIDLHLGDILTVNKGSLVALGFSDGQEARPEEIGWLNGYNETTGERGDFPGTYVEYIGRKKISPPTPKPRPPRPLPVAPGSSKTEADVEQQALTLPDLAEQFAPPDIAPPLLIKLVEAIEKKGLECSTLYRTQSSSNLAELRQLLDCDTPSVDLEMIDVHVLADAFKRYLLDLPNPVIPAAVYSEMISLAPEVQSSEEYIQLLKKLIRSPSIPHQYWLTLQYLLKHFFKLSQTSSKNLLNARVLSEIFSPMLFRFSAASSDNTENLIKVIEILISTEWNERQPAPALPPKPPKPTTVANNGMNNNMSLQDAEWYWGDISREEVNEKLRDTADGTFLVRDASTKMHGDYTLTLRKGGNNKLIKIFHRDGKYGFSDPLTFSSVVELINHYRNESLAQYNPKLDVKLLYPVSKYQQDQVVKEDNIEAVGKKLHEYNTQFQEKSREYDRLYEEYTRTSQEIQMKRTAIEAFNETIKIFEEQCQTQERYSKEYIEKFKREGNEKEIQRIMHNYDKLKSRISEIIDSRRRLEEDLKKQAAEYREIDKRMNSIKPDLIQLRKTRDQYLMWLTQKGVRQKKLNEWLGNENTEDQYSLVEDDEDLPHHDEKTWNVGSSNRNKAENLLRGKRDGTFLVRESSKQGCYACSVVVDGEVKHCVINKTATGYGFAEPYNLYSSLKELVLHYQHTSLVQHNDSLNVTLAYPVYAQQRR
p110γ, sequence (P48736 whole entry): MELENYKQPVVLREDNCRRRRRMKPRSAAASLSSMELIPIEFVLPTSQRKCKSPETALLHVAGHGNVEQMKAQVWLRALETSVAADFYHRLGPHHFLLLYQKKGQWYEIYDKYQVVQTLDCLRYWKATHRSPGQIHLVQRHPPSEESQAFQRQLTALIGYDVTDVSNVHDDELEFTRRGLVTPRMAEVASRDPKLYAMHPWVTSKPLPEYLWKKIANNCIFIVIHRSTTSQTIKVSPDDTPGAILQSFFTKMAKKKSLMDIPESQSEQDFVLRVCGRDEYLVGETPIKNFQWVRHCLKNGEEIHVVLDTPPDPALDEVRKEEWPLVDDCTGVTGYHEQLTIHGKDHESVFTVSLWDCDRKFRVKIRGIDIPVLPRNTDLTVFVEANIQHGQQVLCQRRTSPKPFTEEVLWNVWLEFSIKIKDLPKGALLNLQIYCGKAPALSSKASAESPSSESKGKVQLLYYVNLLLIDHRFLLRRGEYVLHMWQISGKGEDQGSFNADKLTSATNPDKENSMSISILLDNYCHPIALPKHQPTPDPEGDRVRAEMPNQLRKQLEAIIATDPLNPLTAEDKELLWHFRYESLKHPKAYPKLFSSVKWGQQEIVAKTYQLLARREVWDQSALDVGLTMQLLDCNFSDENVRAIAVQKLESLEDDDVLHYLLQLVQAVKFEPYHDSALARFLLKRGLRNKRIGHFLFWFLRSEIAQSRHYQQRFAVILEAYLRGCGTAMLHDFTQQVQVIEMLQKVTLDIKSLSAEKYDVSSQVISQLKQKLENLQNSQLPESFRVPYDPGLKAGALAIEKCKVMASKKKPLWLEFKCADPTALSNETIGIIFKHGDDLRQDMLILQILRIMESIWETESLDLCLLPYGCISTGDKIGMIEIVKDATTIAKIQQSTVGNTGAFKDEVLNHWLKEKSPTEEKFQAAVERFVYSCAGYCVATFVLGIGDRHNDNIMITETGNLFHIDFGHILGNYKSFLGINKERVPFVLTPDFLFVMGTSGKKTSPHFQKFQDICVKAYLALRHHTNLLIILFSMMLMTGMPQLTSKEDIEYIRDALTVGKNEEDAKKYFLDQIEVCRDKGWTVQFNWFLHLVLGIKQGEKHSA
p110δ/p85α, sequence (O00329 whole entry): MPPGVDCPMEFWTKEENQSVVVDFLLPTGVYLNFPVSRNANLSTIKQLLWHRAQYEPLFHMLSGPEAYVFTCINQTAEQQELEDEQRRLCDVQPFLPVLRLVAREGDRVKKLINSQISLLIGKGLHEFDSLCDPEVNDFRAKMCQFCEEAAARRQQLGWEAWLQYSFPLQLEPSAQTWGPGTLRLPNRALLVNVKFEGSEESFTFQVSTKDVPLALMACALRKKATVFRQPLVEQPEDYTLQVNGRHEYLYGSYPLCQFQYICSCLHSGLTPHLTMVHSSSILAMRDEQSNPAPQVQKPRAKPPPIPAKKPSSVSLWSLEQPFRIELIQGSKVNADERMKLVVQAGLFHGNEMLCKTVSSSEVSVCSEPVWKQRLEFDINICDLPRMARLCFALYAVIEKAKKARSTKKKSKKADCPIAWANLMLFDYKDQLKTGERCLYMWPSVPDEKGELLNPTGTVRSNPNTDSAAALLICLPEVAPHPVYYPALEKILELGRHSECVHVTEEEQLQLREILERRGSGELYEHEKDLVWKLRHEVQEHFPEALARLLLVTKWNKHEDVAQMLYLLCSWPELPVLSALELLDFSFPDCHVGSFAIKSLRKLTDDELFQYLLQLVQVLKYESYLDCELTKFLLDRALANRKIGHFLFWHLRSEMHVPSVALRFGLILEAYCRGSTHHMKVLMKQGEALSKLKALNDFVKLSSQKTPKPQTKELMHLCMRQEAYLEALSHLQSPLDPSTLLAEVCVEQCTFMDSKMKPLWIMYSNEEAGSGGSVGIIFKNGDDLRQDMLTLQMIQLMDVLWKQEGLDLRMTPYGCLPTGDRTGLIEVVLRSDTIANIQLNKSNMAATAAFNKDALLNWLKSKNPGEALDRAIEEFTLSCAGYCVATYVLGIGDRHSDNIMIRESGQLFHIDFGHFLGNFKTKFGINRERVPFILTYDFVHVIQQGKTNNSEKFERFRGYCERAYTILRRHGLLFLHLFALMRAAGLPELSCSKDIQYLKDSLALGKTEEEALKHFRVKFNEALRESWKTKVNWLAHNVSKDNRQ
p110δ/p85α, sequence (P27986 whole entry partner): as the sequence (P27986 whole entry partner) above

| SMILES | IC50 (p110δ/p85α) [nM] | IC50 (p110γ) [nM] | IC50 (p110α/p85α) [nM] | IC50 (p110β/p85α) [nM] | EC50 (Balb/c splenic B cells) [nM] |
| --- | --- | --- | --- | --- | --- |
| Nc1ncnc2c1c(-c1cnc3[nH]ccc3c1)nn2Cc1cc2ccccc2nc1N1CCCC1 [Compound 23] | < 100 |  |  |  | < 100 |
| CC(C)Nc1nc2ccccc2cc1Cn1nc(-c2cc(O)cc(F)c2)c2c(N)ncnc21 [Compound 25] | 100 to 1000 | > 1000 |  |  | > 1000 |
| NCc1ccc(F)cc1-c1nc2ccccc2cc1Cn1nc(-c2cc(O)cc(F)c2)c2c(N)ncnc21 [Compound 26] | < 100 | > 1000 |  |  | < 100 |
| CC(c1cc2ccccc2nc1N1CCCC1)n1nc(-c2cc(O)cc(F)c2)c2c(N)ncnc21 (stereo not shown) [Compound 30] | < 100 | < 100 |  |  | < 100 |
| CC(c1cc2ccccc2nc1N1CCCC1)n1nc(C#C[C@@H](C)O)c2c(N)ncnc21 (stereo partly shown) [Compound 31] | < 100 | > 1000 |  |  | 100 to 1000 |
| CC(c1cc2ccccc2nc1N1CCCC1)n1nc(-c2cccc(O)c2)c2c(N)ncnc21 (stereo not shown) [Compound 32] | < 100 | 100 to 1000 |  |  | < 100 |
| Nc1ncnc2c1c(-c1cc(O)cc(F)c1)nn2Cc1cc2ccccc2nc1NC1CCC1 [Compound 42] | < 100 |  |  |  | < 100 |
| CC(Nc1ncnc2[nH]cnc12)c1cc2ccccc2nc1-c1ccccc1 (stereo not shown) [Compound 93] | < 100 | 100 to 1000 | > 1000 | > 1000 |  |
| CCC(Nc1ncnc2[nH]cnc12)c1cc2ccccc2nc1N1CCN(C)CC1 (stereo not shown) [Compound 95] | < 100 | > 1000 | > 1000 | > 1000 |  |
| CCc1nc2ccccc2cc1Cn1nc(-c2cccc(O)c2)c2c(N)ncnc21 [Compound 96] | < 100 | 100 to 1000 | > 1000 | > 1000 |  |
| CCc1nc2ccccc2cc1Cn1nc(-c2cc(O)cc(F)c2)c2c(N)ncnc21 [Compound 97] | < 100 | 100 to 1000 | > 1000 | 100 to 1000 |  |

The next lines start with results.

| IC50 (p110δ/p85α) [nM] | IC50 (p110γ) [nM] | IC50 (p110α/p85α) [nM] | IC50 (p110β/p85α) [nM] | SMILES | EC50 (Balb/c splenic B cells) [nM] |
| --- | --- | --- | --- | --- | --- |
| < 100 |  |  |  | Cc1cccc2cc(Cn3nc(I)c4c(N)ncnc43)c(N3CCN(C)CC3)nc12 [Compound 11] | < 100 |
| < 100 |  |  |  | Cc1cccc2cc(Cn3nc(-c4cc(O)cc(F)c4)c4c(N)ncnc43)c(N3CCN(C)CC3)nc12 [Compound 12] | < 100 |
| < 100 |  |  |  | Cc1cccc2cc(Cn3nc(-c4cccc(O)c4)c4c(N)ncnc43)c(N3CCN(C)CC3)nc12 [Compound 13] | < 100 |
| < 100 |  |  |  | COc1ccccc1-c1nc2ccccc2cc1Cn1nc(-c2cc(O)cc(F)c2)c2c(N)ncnc21 [Compound 15] | < 100 |
| < 100 |  |  |  | CC(C)c1ccccc1-c1nc2ccccc2cc1Cn1nc(C#C[C@@H](C)O)c2c(N)ncnc21 [Compound 16] | 100 to 1000 |
| < 100 |  |  |  | Nc1ncnc2c1c(-c1cc(O)cc(F)c1)nn2Cc1cc2ccccc2nc1-c1ccccc1F [Compound 19] | < 100 |
| < 100 |  |  |  | Nc1ncnc2c1c(-c1cc(O)cc(F)c1)nn2Cc1cc2ccccc2nc1N1CCCCC1 [Compound 20] | < 100 |
